Laboratory results from ChEMBL document CHEMBL1153800, “Carbonic anhydrase inhibitors; fluorinated phenyl sulfamates show strong inhibitory activity and selectivity for the inhibition of the tumor-associated isozymes IX and XII over the cytosolic ones I and II” (Bioorg Med Chem Lett, 2009).

Experiments:
[1] = target: Carbonic anhydrase 2 (Homo sapiens) (UniProt P00918)
Description: Inhibition of human CA2 by stopped flow CO2 hydration assay

Homo sapiens = organism: Homo sapiens; experiment: Selectivity ratio of Ki for human recombinant CA9 catalytic domain to Ki for human CA2
[2] = target: Carbonic anhydrase 9 (Homo sapiens) (UniProt Q16790)
Description: Inhibition of tumor associated human recombinant CA9 catalytic domain by stopped flow CO2 hydration assay

[3] = target: Carbonic anhydrase 12 (Homo sapiens) (UniProt O43570)
Carbonic anhydrase 12 (Homo sapiens), sequence (O43570 whole entry): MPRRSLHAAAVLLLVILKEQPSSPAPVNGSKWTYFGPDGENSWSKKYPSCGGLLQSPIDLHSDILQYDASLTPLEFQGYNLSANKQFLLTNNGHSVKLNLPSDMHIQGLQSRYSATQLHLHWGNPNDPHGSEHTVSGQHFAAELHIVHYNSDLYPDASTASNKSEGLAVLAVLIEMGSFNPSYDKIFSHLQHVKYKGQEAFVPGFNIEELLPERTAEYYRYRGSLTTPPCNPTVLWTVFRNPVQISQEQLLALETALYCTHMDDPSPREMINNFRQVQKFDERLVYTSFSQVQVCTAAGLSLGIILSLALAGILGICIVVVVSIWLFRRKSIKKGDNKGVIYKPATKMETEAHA
Description: Inhibition of tumor associated human recombinant CA12 catalytic domain by stopped flow CO2 hydration assay

[4] = target: Carbonic anhydrase 1 (Homo sapiens) (UniProt P00915)
Carbonic anhydrase 1 (Homo sapiens), sequence (P00915 2-261 limits assumed): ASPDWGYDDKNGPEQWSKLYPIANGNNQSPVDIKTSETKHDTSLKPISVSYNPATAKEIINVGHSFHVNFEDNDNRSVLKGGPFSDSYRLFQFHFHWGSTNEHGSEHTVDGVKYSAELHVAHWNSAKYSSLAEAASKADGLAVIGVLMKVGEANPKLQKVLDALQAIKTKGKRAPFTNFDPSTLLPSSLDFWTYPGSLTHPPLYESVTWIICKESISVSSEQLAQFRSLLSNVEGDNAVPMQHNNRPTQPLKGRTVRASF
Description: Inhibition of human CA1 by stopped flow CO2 hydration assay

| Compound | Ki [1] | Ratio (Homo sapiens) | Ki [2] | Ki [3] | Ki [4] |
| --- | --- | --- | --- | --- | --- |
| NS(=O)(=O)Oc1ccc(F)cc1 | 74 nM | 11.4 | 6.5 nM | 3.9 | 75 nM |
| NS(=O)(=O)Oc1ccccc1 | – | – | 63 nM | 56 | 2.1 nM |
